Laboratory results taken from patent US9790218B2, “Small molecule activators of calcium-activated chloride channels and methods of use” (The Regents of the University of California, priority 2011, dated 2017).
Where two headings read alike, the source gives them in different places. One block for each compound: values may come before it.

What was measured:
TMEM16A [1] = target: T1, TMEM16A (Homo sapiens, UniProt Q5XXA6, DEL476-501); assay: Fluorescence plate reader assay of TMEM16A-mediated I^− influx (YFP halide sensor); assay type: cell-based; details: for EC50 (μM) / EC50: fluorescence plate reader assay; for TMEM16A conductance, F class SAR: synthesized F class analogs; for EC50: read-out: EC50
T1 construct: expressed in transfected cells
T1 sequence (Q5XXA6 with tags, fused parts or gaps isoform Q5XXA6-5 DEL539-564): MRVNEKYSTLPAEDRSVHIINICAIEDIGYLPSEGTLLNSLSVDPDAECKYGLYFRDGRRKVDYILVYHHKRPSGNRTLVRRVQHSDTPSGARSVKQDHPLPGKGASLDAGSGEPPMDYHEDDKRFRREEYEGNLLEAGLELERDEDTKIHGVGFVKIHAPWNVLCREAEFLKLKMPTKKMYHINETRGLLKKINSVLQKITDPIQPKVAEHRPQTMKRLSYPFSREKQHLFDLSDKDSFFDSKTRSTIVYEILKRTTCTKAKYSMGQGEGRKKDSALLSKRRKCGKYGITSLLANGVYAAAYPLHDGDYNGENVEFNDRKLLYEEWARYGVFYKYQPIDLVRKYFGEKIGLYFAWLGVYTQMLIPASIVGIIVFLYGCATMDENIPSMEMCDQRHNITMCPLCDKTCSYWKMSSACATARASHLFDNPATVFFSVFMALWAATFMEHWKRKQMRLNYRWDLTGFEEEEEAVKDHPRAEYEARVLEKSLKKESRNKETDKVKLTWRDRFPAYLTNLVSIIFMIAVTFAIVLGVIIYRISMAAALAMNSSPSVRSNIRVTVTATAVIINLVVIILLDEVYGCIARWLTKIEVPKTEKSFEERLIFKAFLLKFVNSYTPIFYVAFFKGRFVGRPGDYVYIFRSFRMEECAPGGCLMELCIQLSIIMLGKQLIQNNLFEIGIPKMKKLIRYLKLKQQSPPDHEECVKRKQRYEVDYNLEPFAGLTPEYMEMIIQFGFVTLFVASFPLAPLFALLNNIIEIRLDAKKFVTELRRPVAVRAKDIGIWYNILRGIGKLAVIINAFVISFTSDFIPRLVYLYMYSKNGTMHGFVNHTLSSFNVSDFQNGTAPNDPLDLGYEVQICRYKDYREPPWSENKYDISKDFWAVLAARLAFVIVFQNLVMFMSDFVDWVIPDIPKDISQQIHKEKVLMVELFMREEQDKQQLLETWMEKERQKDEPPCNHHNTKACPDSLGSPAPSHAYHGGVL
Method: (§1) FRT cells were stably transfected with human TMEM16A (TMEM16A(abc), cDNA provided by Dr. Luis Galietta, Gaslini Institute, Genoa, Italy) and the halide sensor YFP-H148Q/1152L/F46L. Cells were plated in 96-well black-walled microplates (Corning Inc., Corning, N.Y.) at a density of 20,000 cells per well in Coon's modified F12 medium supplemented with 5% fetal calf serum, 2 mM L-glutamine, 100 U/mL penicillin and 100 μg/mL streptomycin. The human submandibular cell line A253 (ATCC HTB 41) was cultured in complete McCoy's 5A medium supplemented with 10% fetal bovine serum, 100 U/mL penicillin and 100 μg/mL streptomycin.
TMEM16A activators were identified from screening of ˜110,000 synthetic drug-like compounds, purified natural products and approved/investigational drugs. The cell-based screen employs FRT cells coexpressing human TMEM16A and the I^−-sensing yellow fluorescent protein YFP-H148Q/1152L/F46L. FRT cells were chosen because of their low basal I^− and Cl^− transport, rapid growth on uncoated plastic, strong stable expression of transfected proteins, and formation of tight junctions for measurements of transepithelial short-circuit current (Ma et al., supra).
High-throughput screening was done using an automated screening platform (Beckman) equipped with FluoStar fluorescence plate readers (BMG Lab Technologies, Durham, N.C.) as described (Ma et al., supra). Each well of a 96-well plate was washed 3 times with PBS (200 μL/wash), leaving 50 μL PBS. Test compounds (0.5 μL) were added to each well at […]. After 10 min, 96-well plates were transferred to a plate reader for fluorescence assay. Each well was assayed individually for TMEM16A-mediated I^− influx by recording fluorescence continuously (400 ms per point) for 2 s (baseline), then 50 μL of a 140 mM I^− solution was added. The initial rate of I^− influx was computed from fluorescence data by non-linear regression.
As diagrammed in FIG. 1A, test compounds at 25 μM final concentration were added 10 min prior to I^− addition. The 10 min incubation was chosen to allow for compound transport into cytoplasm and to minimize false positives from compounds that elevate cytoplasmic Ca^2+ transiently. Fluorescence from individual wells of 96-well plates was measured just prior to and for 6 s after I^− addition for computation of initial I^− influx rate.

TMEM16A [2] = target: T1, TMEM16A; assay: Apical membrane current in TMEM16A-expressing FRT cells; assay type: cell-based; details: basolateral membrane permeabilized, Cl^− gradient; ATP 100 μM
Method: as §1
Snapwell inserts containing TMEM16A-expressing FRT, HBE, CF HBE or HTG cells were mounted in Ussing chambers (Physiologic Instruments, San Diego, Calif.). Amiloride, CFTRinh-172, UTP, ATP, T16Ainh-A01 and TMEM16A activators were added to the apical solution and an equal volume of vehicle was added at the same time to the basolateral solution. Symmetrical HCO3^−-buffered solutions were used for HBE, CF HBE and HTG cells. For FRT cells, the hemichambers were filled with a half-Cl^− solution (apical) and the HCO3^−-buffered solution (basolateral), and the basolateral membrane was permeabilized with 250 μg/mL amphotericin B, as described (Namkung et al. (2010), supra). Cells were bathed for a 10 min stabilization period and aerated with 95% O2/5% CO2 at 37° C. or room temperature. Apical membrane current (for FRT cells) and short-circuit current were measured using an EVC4000 Multi-Channel V/I Clamp (World Precision Instruments, Sarasota, Fla.) and recorded using PowerLab/8sp (AD Instruments, Castle Hill, Australia).
The current increase was sustained for >10 min (FIG. 2B, inset). […] Data are also shown for a second Fact compound (Fact9, see Table 1) in FIG. 9.

[3] = test system: mouse ileal smooth muscle; assay: Intestinal smooth muscle contraction, ex vivo mouse ileal segments; details: Eact 10 μM, carbachol 1 μM following atropine
Method: FIG. 8A-C. Intestinal smooth muscle contraction. FIG. 8A. Representative traces from mouse ileal segments showing effects of T16Ainh-A01 (10 μM), carbachol (CCh, 1 μM) and Eact (10 μM). FIG. 8B. Effect of CCh (1 μM) and Eact (10 μM) following atropine (1 μM). FIG. 8C. Summary of contraction frequency (left), and resting and maximum tone (right) (mean±S.E., n=4-7, * P<0.05).
Wild type CD1 mice (age 8-10 weeks) were killed by avertin overdose (200 mg/kg). The ileum removed and washed with ice-cold HCO3^−-buffered solution. The ends of the ileal segments were tied with silk thread and connected to a force transducer. Beal segments were equilibrated for 60 min with a resting force of ˜1 mN, with changes of the bathing solution every 15 min. Tension was monitored continuously with a fixed-range precision force transducer (TSD, 125 C; Biopac, Goleta, Calif.) connected to a differential amplifier (DA 100B; Biopac). Data were recorded using MP100, Biopac digital acquisition system and analyzed using Acknowledge 3.5.7 software.
TMEM16A in expressed in the interstitial cells of Cajal, the pacemaker cells that control smooth muscle contraction dynamics in stomach and intestine (Huang et al., supra; Gomez-Pinilla et al. (2009) Am. J. Physiol. Gastrointest. Liver Physiol. 296, G1370-1381). The effect of Eact on mouse ileal smooth muscle contraction was investigated using an ex vivo intestinal preparation. […] Without wishing to be bound by theory, the constitutive TMEM16A activity in this ex vivo preparation could obscure Eact activity. To reveal Eact effects, atropine was first added to inhibit basal contractions. […] FIG. 8C summarizes data on contraction frequency, resting tone and maximal tone.

SMILES: O=C(Nc1ccccc1Br)c1cccc(-n2cnnn2)c1 [2-bromophenyl]
EC50 (μM) (TMEM16A [1]; Fact analogs): inactive

SMILES: O=C(Nc1cccc(Br)c1)c1cccc(-n2cnnn2)c1 [3-bromophenyl]
EC50 (μM) (TMEM16A [1]; Fact analogs): inactive

SMILES: CN(C)c1ccc(NC(=O)c2cccc(-n3cnnn3)c2)cc1 [4-(N,N-dimethylamino)phenyl]
EC50 (μM) (TMEM16A [1]; Fact analogs): inactive
TMEM16A conductance, F class SAR (TMEM16A [1]): low activity

SMILES: O=C(Nc1ccc(Cl)cc1)c1cccc(-n2cnnn2)c1 [4-chlorophenyl]
EC50 (μM) (TMEM16A [1]; Fact analogs): inactive
TMEM16A conductance, F class SAR (TMEM16A [1]): low activity

SMILES: Nc1ncnc2c1ncn2[C@@H]1O[C@H](COP(=O)(O)OP(=O)(O)OP(=O)(O)O)[C@@H](O)[C@H]1O [ATP, reference compound]
Cl^− current (apical membrane current) (TMEM16A [2]): large but transient elevation in Cl^− current

SMILES: CN1[C@@H]2CC[C@H]1C[C@@H](OC(=O)C(CO)c1ccccc1)C2 (stereo partly drawn) [atropine]
contraction after atropine (1 μM) [3]: prevented the carbachol effect

The next lines start with the values.

EC50 (TMEM16A [1]; Fact analogs): 55 µM
SMILES: O=C(Nc1ccc(Br)c(C(F)(F)F)c1)c1cccc(-n2cnnn2)c1 [4-bromo-3-trifluoromethylphenyl]

EC50 (μM) (TMEM16A [1]; Fact analogs): inactive
TMEM16A conductance, F class SAR (TMEM16A [1]): low activity
SMILES: O=C(Nc1ccc([N+](=O)[O-])cc1)c1cccc(-n2cnnn2)c1 [4-nitrophenyl]

EC50 (TMEM16A [1]; Eact analogs): 2 µM
SMILES: COc1ccc(CC(=O)N(Cc2ccncc2)c2nc(-c3ccccc3)cs2)c(OC)c1OC [(pyrid-4-yl)methyl / phenyl, N-(4-pyridylmethyl)-N-(4-phenyl-2-thiazolyl)-2,3,4-trimethoxybenzeneacetamide]

EC50 (TMEM16A [1]; Fact analogs): 11 µM
Cl^− current (apical membrane current) (TMEM16A [2]): stimulated TMEM16A Cl^− current
SMILES: CC(C)c1ccc(NC(=O)c2cccc(-n3cnnn3)c2)cc1 [Fact9, N-(4-isopropylphenyl)-3-(1H-tetrazol-1-yl)benzamide]

EC50 (TMEM16A [1]; Eact analogs): 4 µM
SMILES: COc1ccc(-c2csc(N(Cc3ccccc3)C(=O)c3cc(OC)c(OC)c(OC)c3)n2)cc1 [benzyl / 4-methoxyphenyl]
